{"source": "PubChem BioAssay AID248", "about": "(DTP/NCI, 2004)", "system": "L1210 leukemia ip in BDF1 mice, survival T/C", "assay": "NCI In Vivo Anticancer Drug Screen. Data for tumor model L1210 Leukemia (intraperitoneal) in B6D2F1 (BDF1) mice", "details": "higher = longer survival", "procedure,_shortened": "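Read-out is survival time, reported as the treated-group measurement over the vehicle-control measurement.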", "key": {"[1]": {"details": "endpoint: mean survival time, dose: 100.0 mg/kg/injection, schedule: Q01DX001 (ip), vehicle: saline"}, "[2]": {"details": "endpoint: mean survival time, dose: 200.0 mg/kg/injection, schedule: Q01DX001 (ip), vehicle: saline"}, "[3]": {"details": "endpoint: mean survival time, dose: 100.0 mg/kg/injection, schedule: Q01DX009 (ip), vehicle: Klucel (hydroxypropylcellulose) (HPC)"}, "[4]": {"details": "endpoint: mean survival time, dose: 400.0 mg/kg/injection, schedule: Q01DX001 (ip), vehicle: saline"}, "[5]": {"details": "endpoint: mean survival time, dose: 100.0 mg/kg/injection, schedule: Q04DX003 (ip), vehicle: saline"}, "[6]": {"details": "endpoint: mean survival time, dose: 200.0 mg/kg/injection, schedule: Q04DX003 (ip), vehicle: saline"}, "[7]": {"details": "endpoint: mean survival time, dose: 400.0 mg/kg/injection, schedule: Q04DX003 (ip), vehicle: saline"}}, "note": "Toxic doses and inconclusive results are not listed."}
{"smiles": "C[C@]12CCC(=O)C=C1[C@@H](F)C[C@@H]1[C@@H]2[C@@H](O)C[C@@]2(C)[C@H]1CC[C@]2(O)C(=O)CO", "values": [{"measurement": "T/C", "setting": "endpoint: mean survival time, dose: 25.0 mg/kg/injection, schedule: Q01DX015 (ip), vehicle: carboxymethylcellulose (CMC)", "value": "106 % of control"}, {"measurement": "T/C", "setting": "endpoint: mean survival time, dose: 50.0 mg/kg/injection, schedule: Q01DX015 (ip), vehicle: carboxymethylcellulose (CMC)", "value": "96 % of control"}, {"measurement": "T/C", "setting": "endpoint: mean survival time, dose: 100.0 mg/kg/injection, schedule: Q01DX001 (sc), vehicle: steriod suspending solution", "value": "117 % of control"}, {"measurement": "T/C", "setting": "endpoint: mean survival time, dose: 100.0 mg/kg/injection, schedule: Q01DX015 (ip), vehicle: carboxymethylcellulose (CMC)", "value": "110 % of control"}, {"measurement": "T/C", "setting": "endpoint: mean survival time, dose: 200.0 mg/kg/injection, schedule: Q01DX001 (sc), vehicle: steriod suspending solution", "value": "89 % of control"}, {"measurement": "T/C", "setting": "endpoint: mean survival time, dose: 200.0 mg/kg/injection, schedule: Q01DX015 (ip), vehicle: carboxymethylcellulose (CMC)", "value": "98 % of control"}, {"measurement": "T/C", "setting": "endpoint: mean survival time, dose: 400.0 mg/kg/injection, schedule: Q01DX001 (sc), vehicle: steriod suspending solution", "value": "100 % of control"}, {"measurement": "T/C", "setting": "endpoint: mean survival time, dose: 400.0 mg/kg/injection, schedule: Q01DX015 (ip), vehicle: carboxymethylcellulose (CMC)", "value": "86 % of control"}, {"measurement": "T/C", "setting": "endpoint: mean survival time, dose: 800.0 mg/kg/injection, schedule: Q01DX001 (sc), vehicle: steriod suspending solution", "value": "105 % of control"}, {"measurement": "T/C", "setting": "endpoint: mean survival time, dose: 800.0 mg/kg/injection, schedule: Q01DX015 (ip), vehicle: saline", "value": "102 % of control"}]}
{"smiles": "N=c1nc2n(cc1F)C1OC(CO)C(O)C1O2", "note": "(centres undefined)", "values": [{"measurement": "T/C", "setting": "endpoint: median survival time, dose: 200.0 mg/kg/injection, schedule: Q01DX005 (ip), vehicle: other", "value": "163 % of control"}, {"measurement": "T/C", "setting": "endpoint: median survival time, dose: 400.0 mg/kg/injection, schedule: Q01DX005 (ip), vehicle: other", "value": "163 % of control"}]}
{"smiles": "COC(=O)C(Cc1ccccc1)NC(=O)/C=C/N(CCCl)CCCl", "note": "(centres undefined)", "values": [{"measurement": "T/C", "setting": "endpoint: mean survival time, dose: 10.0 mg/kg/injection, schedule: Q01DX Z (ip), vehicle: other", "value": "97 % of control"}, {"measurement": "T/C", "setting": "endpoint: mean survival time, dose: 20.0 mg/kg/injection, schedule: Q01DX Z (ip), vehicle: other", "value": "96 % of control"}, {"measurement": "T/C", "setting": "endpoint: mean survival time, dose: 40.0 mg/kg/injection, schedule: Q01DX Z (ip), vehicle: other", "value": "89 % of control"}, {"measurement": "T/C", "setting": "endpoint: mean survival time, dose: 80.0 mg/kg/injection, schedule: Q01DX Z (ip), vehicle: other", "value": "102 % of control"}]}
{"smiles": "C=C1C(=O)O[C@@H]2/C=C(/C)[C@@]3(O)C=C[C@](C)(C[C@@H](OC(=O)/C(=C\\C)COC(C)=O)[C@@H]12)O3", "values": [{"measurement": "T/C", "setting": "endpoint: mean survival time, dose: 0.06 mg/kg/injection, schedule: Q01DX009 (ip), vehicle: carboxymethylcellulose (CMC)", "value": "102 % of control"}, {"measurement": "T/C", "setting": "endpoint: mean survival time, dose: 0.12 mg/kg/injection, schedule: Q01DX009 (ip), vehicle: carboxymethylcellulose (CMC)", "value": "101 % of control"}, {"measurement": "T/C", "setting": "endpoint: mean survival time, dose: 0.25 mg/kg/injection, schedule: Q01DX009 (ip), vehicle: carboxymethylcellulose (CMC)", "value": "98 % of control"}]}
{"smiles": "CCCCCCCCCCCCCCCCCCCCCCCCCCCCCCCS", "values": [{"measurement": "T/C", "setting": "endpoint: mean survival time, dose: 100.0 mg/kg/injection, schedule: Q01DX001 (ip), vehicle: other", "value": "95 % of control"}, {"measurement": "T/C", "setting": "endpoint: mean survival time, dose: 200.0 mg/kg/injection, schedule: Q01DX001 (ip), vehicle: other", "value": "103 % of control"}]}
{"smiles": "CC(=O)Oc1ccc(Cl)cc1/C=C\\C=O", "values": [{"measurement": "T/C", "setting": "[1]", "value": "100 % of control"}, {"measurement": "T/C", "setting": "[2]", "value": "101 % of control"}]}
{"smiles": "CC(O)C(O)C(O)C(O)C(c1ccc(Cl)cc1)c1ccc(Cl)cc1", "note": "(centres undefined)", "values": [{"measurement": "T/C", "setting": "endpoint: mean survival time, dose: 50.0 mg/kg/injection, schedule: Q01DX001 (ip), vehicle: saline", "value": "104 % of control"}, {"measurement": "T/C", "setting": "[1]", "value": "98 % of control"}]}
{"smiles": "COC1OC(C2N(c3ccccc3)CCN2c2ccccc2)=CC(OC(C)=O)C1OC(C)=O", "note": "(centres undefined)", "values": [{"measurement": "T/C", "setting": "[3]", "value": "86 % of control"}, {"measurement": "T/C", "setting": "endpoint: mean survival time, dose: 400.0 mg/kg/injection, schedule: Q01DX009 (ip), vehicle: Klucel (hydroxypropylcellulose) (HPC)", "value": "90 % of control"}]}
{"smiles": "COc1cc(C=O)ccc1OC(=O)Nc1cccc(C(C)=O)c1", "values": [{"measurement": "T/C", "setting": "[3]", "value": "96 % of control"}, {"measurement": "T/C", "setting": "endpoint: mean survival time, dose: 200.0 mg/kg/injection, schedule: Q01DX009 (ip), vehicle: Klucel (hydroxypropylcellulose) (HPC)", "value": "92 % of control"}]}
{"smiles": "CC1OC(O)C(N)C(O)C1O", "note": "(centres undefined)", "values": [{"measurement": "T/C", "setting": "[1]", "value": "107 % of control"}, {"measurement": "T/C", "setting": "[2]", "value": "106 % of control"}, {"measurement": "T/C", "setting": "[4]", "value": "106 % of control"}]}
{"smiles": "O=C(NO)c1cc(Cl)c(C(=O)NO)cc1Cl", "values": [{"measurement": "T/C", "setting": "endpoint: mean survival time, dose: 100.0 mg/kg/injection, schedule: Q01DX009 (ip), vehicle: other", "value": "93 % of control"}, {"measurement": "T/C", "setting": "[5]", "value": "102 % of control"}, {"measurement": "T/C", "setting": "endpoint: mean survival time, dose: 200.0 mg/kg/injection, schedule: Q01DX009 (ip), vehicle: other", "value": "95 % of control"}, {"measurement": "T/C", "setting": "[6]", "value": "102 % of control"}, {"measurement": "T/C", "setting": "[7]", "value": "97 % of control"}]}
{"smiles": "NC(=O)c1cc(Cl)cc(Cl)c1N", "values": [{"measurement": "T/C", "setting": "endpoint: mean survival time, dose: 100.0 mg/kg/injection, schedule: Q01DX001 (ip), vehicle: Klucel (hydroxypropylcellulose) (HPC)", "value": "100 % of control"}, {"measurement": "T/C", "setting": "endpoint: mean survival time, dose: 200.0 mg/kg/injection, schedule: Q01DX001 (ip), vehicle: Klucel (hydroxypropylcellulose) (HPC)", "value": "107 % of control"}, {"measurement": "T/C", "setting": "endpoint: mean survival time, dose: 400.0 mg/kg/injection, schedule: Q01DX001 (ip), vehicle: Klucel (hydroxypropylcellulose) (HPC)", "value": "111 % of control"}]}
{"smiles": "CC(=O)OC12C=CC(C(C)=C1)C1C(=O)C=CC(=O)C12", "note": "(centres undefined)", "values": [{"measurement": "T/C", "setting": "[1]", "value": "103 % of control"}, {"measurement": "T/C", "setting": "endpoint: mean survival time, dose: 100.0 mg/kg/injection, schedule: Q01DX009 (ip), vehicle: saline", "value": "98 % of control"}, {"measurement": "T/C", "setting": "[5]", "value": "103 % of control"}, {"measurement": "T/C", "setting": "[2]", "value": "97 % of control"}, {"measurement": "T/C", "setting": "endpoint: mean survival time, dose: 200.0 mg/kg/injection, schedule: Q01DX009 (ip), vehicle: saline", "value": "89 % of control"}, {"measurement": "T/C", "setting": "[6]", "value": "103 % of control"}, {"measurement": "T/C", "setting": "[4]", "value": "97 % of control"}, {"measurement": "T/C", "setting": "endpoint: mean survival time, dose: 400.0 mg/kg/injection, schedule: Q01DX009 (ip), vehicle: saline", "value": "90 % of control"}, {"measurement": "T/C", "setting": "[7]", "value": "87 % of control"}]}
